Measured values as given in patent US8765746B2 (Millennium Pharmaceuticals, Inc., priority 2010, dated 2014).

Tests used:
Assay type in all cases: biochemical
[1] = molecular target: T1, VPS34 (Homo sapiens, UniProt Q8NEB9); test: Human VPS34 enzyme assay (Adapta Universal Kinase Assay); settings: for inhibition at 1.11 µM: 1 h, read-out: VPS34 % ihn
T1 construct: GST (N); host or cells: SF9 insect cells (baculovirus)
Experimental: VPS34 (accession number GB:BC033004) is cloned into pDEST20-Thombin as N-terminal GST tagged fusion proteins using the Gateway system (Invitrogen, catalog#11804-013). The sequences are verified before recombinant protein expression using the Baculovirus Expression System with Gateway® Technology.
For expression VPS34 was infected at 1MOI in SF9 cells and harvested 72 hours post infection.
For purification, VPS34 is purified by Glutathione Sepharose 4 Fast Flow (GE Healthcare #17-5132-03) followed by HiTrap Q (GE Healthcare #17-1153-01).
3) VPS34 is assayed using Adapta™ Universal Kinase Assay Kit (Invitrogen).
4) Human VPS34 enzyme assay method
100 mL compounds in DMSO are added to wells of a 384 well microtitre plate (Greiner 780076). At room temperature: 5 ul VPS34 reaction buffer (Invitrogen Assay Buffer Q (diluted 1 in 5 with nanopure water) plus 2 mM DTT and 2 mM MnCl2) containing ATP (20 uM, Promega) and 200 uM PI-PS substrate (Invitrogen PV5122) is added followed immediately by 5 ul VPS34 reaction buffer (as above) containing VPS34 (5 nM, Millennium Protein Sciences Group) and the mixture is incubated with shaking at room temperature for 1 hour. Then 5 ul VPS34 stop-detect mix (as per Invitrogen Adapta Assay kit (PV5009) instructions (contains kinase quench buffer, TR-FRET buffer, Adapta Eu anti-ADP antibody and Alexa Fluor 647 ADP tracer)) is added to quench the reaction. The plates are then incubated for 30 minutes at room temperature with shaking and then read on a BMG PheraStar Plus reader.

[2] = molecular target: T2, PI3Kalpha (Homo sapiens, UniProt P42336); test: Human PI3Kα enzyme assay (HTRF); settings: read-out: PI3Kalpha % inh
T2 construct: His (N); host or cells: SF9 insect cells (baculovirus)
T2 sequence (P42336 whole entry): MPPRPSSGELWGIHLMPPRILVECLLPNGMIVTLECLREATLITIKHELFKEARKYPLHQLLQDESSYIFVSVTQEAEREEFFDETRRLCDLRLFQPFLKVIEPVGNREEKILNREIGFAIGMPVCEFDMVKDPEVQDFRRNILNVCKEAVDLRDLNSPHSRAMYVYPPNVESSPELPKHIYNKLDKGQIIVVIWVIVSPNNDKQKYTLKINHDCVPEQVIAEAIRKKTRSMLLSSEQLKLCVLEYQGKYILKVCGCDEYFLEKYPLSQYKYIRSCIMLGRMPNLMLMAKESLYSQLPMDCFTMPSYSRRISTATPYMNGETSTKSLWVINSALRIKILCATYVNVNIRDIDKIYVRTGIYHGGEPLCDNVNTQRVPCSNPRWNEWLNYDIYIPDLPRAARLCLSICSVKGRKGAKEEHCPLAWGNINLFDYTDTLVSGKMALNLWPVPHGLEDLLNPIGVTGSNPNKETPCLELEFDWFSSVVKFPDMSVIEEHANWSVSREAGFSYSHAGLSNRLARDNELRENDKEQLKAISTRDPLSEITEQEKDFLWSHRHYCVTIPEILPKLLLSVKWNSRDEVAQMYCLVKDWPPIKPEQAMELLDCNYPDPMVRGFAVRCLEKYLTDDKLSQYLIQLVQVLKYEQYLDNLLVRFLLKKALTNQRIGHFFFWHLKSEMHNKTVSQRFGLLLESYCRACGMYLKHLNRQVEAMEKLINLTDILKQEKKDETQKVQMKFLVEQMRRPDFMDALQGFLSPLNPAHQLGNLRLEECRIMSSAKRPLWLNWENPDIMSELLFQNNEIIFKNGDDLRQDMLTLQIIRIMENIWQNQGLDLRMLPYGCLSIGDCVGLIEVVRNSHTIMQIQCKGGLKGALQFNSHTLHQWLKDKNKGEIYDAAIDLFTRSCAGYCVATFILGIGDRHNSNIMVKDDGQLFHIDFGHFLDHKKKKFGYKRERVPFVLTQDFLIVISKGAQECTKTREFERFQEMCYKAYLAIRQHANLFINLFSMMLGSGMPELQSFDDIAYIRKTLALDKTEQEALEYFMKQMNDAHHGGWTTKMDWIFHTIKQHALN
T2 sequence (P27986 whole entry partner): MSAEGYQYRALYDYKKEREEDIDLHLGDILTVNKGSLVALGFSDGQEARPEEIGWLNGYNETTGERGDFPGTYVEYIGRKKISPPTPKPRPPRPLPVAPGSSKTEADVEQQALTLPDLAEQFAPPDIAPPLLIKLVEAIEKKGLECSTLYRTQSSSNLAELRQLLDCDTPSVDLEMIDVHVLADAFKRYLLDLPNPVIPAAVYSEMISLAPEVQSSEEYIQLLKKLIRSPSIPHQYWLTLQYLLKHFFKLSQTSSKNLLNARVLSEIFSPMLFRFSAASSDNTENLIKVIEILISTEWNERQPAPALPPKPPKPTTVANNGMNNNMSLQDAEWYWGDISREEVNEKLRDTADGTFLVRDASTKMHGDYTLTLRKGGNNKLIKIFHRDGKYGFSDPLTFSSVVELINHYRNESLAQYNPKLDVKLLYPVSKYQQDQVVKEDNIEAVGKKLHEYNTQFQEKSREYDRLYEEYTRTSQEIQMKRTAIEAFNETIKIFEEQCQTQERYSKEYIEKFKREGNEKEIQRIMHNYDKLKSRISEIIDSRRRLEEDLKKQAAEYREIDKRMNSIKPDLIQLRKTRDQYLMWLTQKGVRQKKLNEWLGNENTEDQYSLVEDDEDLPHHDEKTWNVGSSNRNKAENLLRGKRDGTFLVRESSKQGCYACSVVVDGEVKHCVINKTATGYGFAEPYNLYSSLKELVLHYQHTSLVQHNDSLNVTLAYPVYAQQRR
Procedure, shortened: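 His-tagged p110α co-expressed with p85 in Sf9 cells was reacted for 30 min at room temperature in pH 7.00 Hepes buffer with 10 mM MgCl2. Addition solutions held 25 uM ATP, 3.5 uM di-C8 PI(4,5)P2 and 0.4875 nM enzyme. The reaction was quenched with EDTA/biotin-PIP3 and detected by HTRF (GST-GRP-1 PH domain, streptavidin-XL, Eu anti-GST) after 1 h.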

[3] = molecular target: T3, PI3Kbeta (Homo sapiens, UniProt P42338); test: Human PI3K beta enzyme assay (HTRF, as for PI3K alpha); settings: for inhibition at 1.11 µM: read-out: PI3Kbeta % inh; for IC50: read-out: IC50 (inhibit PI3Kbeta)
T3 construct: His (N); host or cells: SF9 insect cells (baculovirus)
T3 sequence (P42338 whole entry): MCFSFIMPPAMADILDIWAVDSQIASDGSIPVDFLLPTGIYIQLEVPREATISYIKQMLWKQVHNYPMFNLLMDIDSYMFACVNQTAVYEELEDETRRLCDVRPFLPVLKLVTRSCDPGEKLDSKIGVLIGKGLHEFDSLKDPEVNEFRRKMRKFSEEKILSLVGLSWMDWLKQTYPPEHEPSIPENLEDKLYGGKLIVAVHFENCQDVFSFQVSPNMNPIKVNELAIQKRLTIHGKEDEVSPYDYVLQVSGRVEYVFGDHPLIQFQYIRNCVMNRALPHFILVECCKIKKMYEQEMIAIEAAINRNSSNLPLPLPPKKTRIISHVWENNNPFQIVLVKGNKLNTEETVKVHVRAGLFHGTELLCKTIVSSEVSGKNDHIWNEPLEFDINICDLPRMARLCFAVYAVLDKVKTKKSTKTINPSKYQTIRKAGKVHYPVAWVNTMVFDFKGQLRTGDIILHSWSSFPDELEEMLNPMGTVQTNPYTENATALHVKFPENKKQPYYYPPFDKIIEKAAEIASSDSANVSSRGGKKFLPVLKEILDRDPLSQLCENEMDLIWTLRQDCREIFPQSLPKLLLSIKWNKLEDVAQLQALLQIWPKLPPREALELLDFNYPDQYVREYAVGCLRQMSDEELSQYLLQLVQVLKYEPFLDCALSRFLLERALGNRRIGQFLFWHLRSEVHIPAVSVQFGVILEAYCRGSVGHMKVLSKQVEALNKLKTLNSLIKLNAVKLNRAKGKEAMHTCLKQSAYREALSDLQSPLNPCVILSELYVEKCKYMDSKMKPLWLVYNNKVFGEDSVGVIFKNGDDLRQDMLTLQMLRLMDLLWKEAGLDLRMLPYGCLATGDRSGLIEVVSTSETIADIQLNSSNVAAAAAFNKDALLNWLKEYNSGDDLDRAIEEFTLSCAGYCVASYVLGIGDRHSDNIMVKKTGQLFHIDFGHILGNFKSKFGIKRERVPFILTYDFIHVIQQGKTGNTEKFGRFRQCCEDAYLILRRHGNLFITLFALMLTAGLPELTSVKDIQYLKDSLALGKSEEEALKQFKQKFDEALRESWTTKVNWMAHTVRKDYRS
T3 sequence (P27986 whole entry partner): as the sequence (P27986 whole entry partner) above
Procedure, shortened: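 N-His p110β/δ co-expressed with untagged p85 in Sf9, p110γ alone. Enzyme 5.25 nM (β), 0.75 nM (δ), 5 nM (γ), with ATP 25 uM and di-C8 PI(4,5)P2 3.5 uM (added-solution levels), pH 7.00, 30 min RT. HTRF read-out: biotin-PIP3, GST-GRP-1 PH domain, Eu anti-GST, streptavidin-XL.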

[4] = molecular target: T4, PI3Kdelta (Homo sapiens, UniProt O00329); test: Human PI3K delta enzyme assay (HTRF, as for PI3K alpha); settings: read-out: PI3Kdelta % inh
T4 construct: His (N); host or cells: SF9 insect cells (baculovirus)
From the text: (§1) The catalytic subunits of PI3Ks are cloned into either pDEST8(p110 alpha) or pDEST10(p110beta, p110delta, and p110gamma) as N-terminal His tagged fusion proteins using the Gateway system (Invitrogen, catalog#11804-010 for pDEST8 and 11806-015 for pDEST10). The sequences are verified before recombinant protein expression using the Baculovirus Expression System with Gateway® Technology. The accession numbers for the subunits are as follows:
(§2) The regulatory subunits of PI3Ks are cloned into pDEST8 as un-tagged protein using the Gateway system (Catalog#11804-010). The sequences are verified before recombinant protein expression using the Baculovirus Expression System with Gateway® Technology. The accession numbers for the subunits are as follows:
(§3) For expression of the p110 complexes, the p85 (MOI of 4) is co-infected with p110 alpha, beta, and delta respectively (1MOI) in SF9 cells and harvested at 60 hours post co-infection. P110 gamma was infected at 1 MOI and harvested at 60 hours post infection.
(§4) For purification, PI3Ks are purified by Ni-NTA Agarose (Qiagen #30250) followed by Mono Q 10/100 GL (Ge Healthcare #17-5167-01). VPS34 is purified by Glutathione Sepharose 4 Fast Flow (GE Healthcare #17-5132-03) followed by HiTrap Q (GE Healthcare #17-1153-01).
(§5) 0.5 uL compounds in DMSO are added to wells of a 384 well microtitre plate (Corning 3575). At room temperature: 10 ul PI3K reaction buffer (50 mM Hepes, 5 mM DTT, 150 mM NaCl, 10 mM beta-glycerophosphate, 10 mM MgCl2, 0.25 mM sodium cholate and 0.001% CHAPS, pH 7.00) containing ATP (25 uM, Promega) is added followed immediately by 10 ul PI3K reaction buffer containing di-C8 PI(4,5)P2 (3.5 uM, CellSignals) and PI3Kalpha (0.4875 nM, Millennium Protein Sciences Group) and the mixture is incubated with shaking at room temperature for 30 minutes. Then 5 ul PI3K stop mix (50 mM Hepes, 5 mM DTT, 150 mM NaCl, 0.01% Tween-20, 15 mM EDTA and 25 nM biotin-PI(3,4,5)P3 (Echelon) is added to quench the reaction followed immediately by addition of 5 ul HTRF detection mix (50 mM Hepes, 5 mM DTT, 150 mM NaCl, 0.01% Tween-20, 40 mM KF, 10 nM GST:GRP-1 PH domain (Millennium Protein Sciences Group), 15 nM Streptavidin-XL (CisBio) and 0.375 nM anti-GST Eu++ antibody (CisBio) at pH 7.00). The plates are then incubated for 1 hour at room temperature with shaking and then read on a BMG PheraStar Plus reader.
(§6) 2) Human PI3K beta, delta and gamma isoforms are tested using the procedure described for PI3K alpha above but with the following changes: PI3K beta (5.25 nM), PI3K delta (0.75 nM) and PI3K gamma (5 nM). All isoforms supplied by Millennium Protein Science Group.

[5] = molecular target: T5, PI3Kgamma (Homo sapiens, UniProt P48736); test: Human PI3K gamma enzyme assay (HTRF, as for PI3K alpha); settings: for inhibition at 1.11 µM: read-out: PI3Kgamma % inh
T5 construct: His (N); host or cells: SF9 insect cells (baculovirus)
T5 sequence (P48736 whole entry): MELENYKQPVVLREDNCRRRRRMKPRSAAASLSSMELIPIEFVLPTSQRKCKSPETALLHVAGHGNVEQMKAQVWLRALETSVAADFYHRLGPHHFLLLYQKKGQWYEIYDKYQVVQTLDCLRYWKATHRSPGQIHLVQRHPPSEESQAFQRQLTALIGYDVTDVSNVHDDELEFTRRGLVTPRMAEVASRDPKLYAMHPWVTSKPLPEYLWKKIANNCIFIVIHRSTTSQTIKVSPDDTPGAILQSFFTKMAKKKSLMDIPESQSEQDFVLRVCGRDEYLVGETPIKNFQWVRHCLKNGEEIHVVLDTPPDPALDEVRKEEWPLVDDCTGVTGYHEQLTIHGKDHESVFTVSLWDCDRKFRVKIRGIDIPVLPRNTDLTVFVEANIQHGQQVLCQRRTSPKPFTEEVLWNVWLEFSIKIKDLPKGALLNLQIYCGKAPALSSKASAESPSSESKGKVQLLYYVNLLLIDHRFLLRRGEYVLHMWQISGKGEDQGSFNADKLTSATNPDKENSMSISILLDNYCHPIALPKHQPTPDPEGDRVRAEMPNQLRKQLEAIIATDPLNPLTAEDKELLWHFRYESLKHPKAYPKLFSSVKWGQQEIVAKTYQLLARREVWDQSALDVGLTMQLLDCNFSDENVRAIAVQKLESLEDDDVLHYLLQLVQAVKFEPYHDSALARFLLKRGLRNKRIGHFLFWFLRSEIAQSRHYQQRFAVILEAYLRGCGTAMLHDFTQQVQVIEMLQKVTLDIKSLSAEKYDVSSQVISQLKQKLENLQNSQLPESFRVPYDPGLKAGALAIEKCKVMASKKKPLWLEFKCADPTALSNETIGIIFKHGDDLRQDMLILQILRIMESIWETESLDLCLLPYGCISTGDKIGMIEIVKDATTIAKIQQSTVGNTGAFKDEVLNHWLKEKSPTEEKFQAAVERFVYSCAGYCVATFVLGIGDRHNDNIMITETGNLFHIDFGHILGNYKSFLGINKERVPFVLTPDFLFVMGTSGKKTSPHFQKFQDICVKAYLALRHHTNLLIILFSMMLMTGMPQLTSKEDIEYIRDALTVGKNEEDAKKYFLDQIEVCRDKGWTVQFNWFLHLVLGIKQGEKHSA
From the text: as §1, §2, §3, §4, §5, §6

T1 sequence (Q8NEB9 whole entry): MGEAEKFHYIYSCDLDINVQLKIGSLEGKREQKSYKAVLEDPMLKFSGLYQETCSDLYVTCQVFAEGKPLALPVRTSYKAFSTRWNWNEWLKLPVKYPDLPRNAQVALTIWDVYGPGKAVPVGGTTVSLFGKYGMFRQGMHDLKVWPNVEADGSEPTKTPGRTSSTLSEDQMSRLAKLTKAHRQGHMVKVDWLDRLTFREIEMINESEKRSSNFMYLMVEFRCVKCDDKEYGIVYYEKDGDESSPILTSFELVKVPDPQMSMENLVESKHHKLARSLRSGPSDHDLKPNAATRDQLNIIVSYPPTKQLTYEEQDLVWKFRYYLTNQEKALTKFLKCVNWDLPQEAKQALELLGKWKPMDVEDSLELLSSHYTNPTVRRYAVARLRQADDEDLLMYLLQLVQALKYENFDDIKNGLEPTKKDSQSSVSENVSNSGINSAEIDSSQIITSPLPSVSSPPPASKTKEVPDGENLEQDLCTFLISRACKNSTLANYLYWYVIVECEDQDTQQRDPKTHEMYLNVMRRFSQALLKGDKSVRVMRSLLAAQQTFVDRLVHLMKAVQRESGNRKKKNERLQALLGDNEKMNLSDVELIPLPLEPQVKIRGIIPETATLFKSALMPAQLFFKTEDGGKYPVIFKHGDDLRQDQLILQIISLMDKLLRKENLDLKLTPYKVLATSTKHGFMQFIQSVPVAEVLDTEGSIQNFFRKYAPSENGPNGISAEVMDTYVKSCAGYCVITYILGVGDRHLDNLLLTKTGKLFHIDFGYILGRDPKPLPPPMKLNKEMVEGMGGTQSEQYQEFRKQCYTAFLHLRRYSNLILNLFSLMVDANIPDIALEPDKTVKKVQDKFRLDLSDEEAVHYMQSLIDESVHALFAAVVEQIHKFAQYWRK

SMILES	inhibition at 1.11 µM [1] [%]	inhibition at 1.11 µM [2] [%]	inhibition at 1.11 µM [3] [%]	IC50 [3] [µM]	inhibition at 1.11 µM [4] [%]	inhibition at 1.11 µM [5] [%]	VPS34 % ihn ([1]; at 1.11 μM) [%]	PI3Kgamma % inh ([5]; at 1.11 μM) [%]
CC(=O)Nc1cc(-c2cc3c(s2)C(=O)NCCC3c2ccc(Cl)cc2)ccn1 (centres unmarked) [Compound 1, N-{4-[4-(4-chlorophenyl)-8-oxo-5,6,7,8-tetrahydro-4H-thieno[2,3-c]azepin-2-yl]pyridin-2-yl}acetamide]	29.3	49.8	100	< 0.1	103	63.4		
Clc1ccc(C2CCc3cn[nH]c3-c3sc(-c4ccncc4)cc32)cc1 (centres unmarked) [Compound 6, 6-(4-chlorophenyl)-8-pyridin-4-yl-1,4,5,6-tetrahydrothieno[3′,2′:6,7]cyclohepta[1,2-c]pyrazole]	10.1	27	97.9	< 0.1	70.7	14		
CC(=O)Nc1cc(-c2cc3c(s2)C(=O)CCC3c2ccc(Cl)cc2)ccn1 (centres unmarked) [Compound 7, N-{4-[4-(4-chlorophenyl)-7-oxo-4,5,6,7-tetrahydro-1-benzothien-2-yl]pyridin-2-yl}acetamide]	9.6	20.5	64.6	0.1 to 1	91.3	6.5		
CC1(C)CC(=O)c2sc(-c3ccncc3)cc2C1c1ccc(Cl)cc1 (centres unmarked) [Compound 10, 4-(4-chlorophenyl)-5,5-dimethyl-2-pyridin-4-yl-5,6-dihydro-1-benzothiophen-7(4H)-one]	0.1	0.2	71	0.1 to 1	32.4	6.7		
Cc1nn2ccccc2c1-c1nc2c(s1)NC(=O)CCC2c1ccc(Cl)cc1 (centres unmarked) [Compound 11, 8-(4-chlorophenyl)-2-(2-methylpyrazolo[1,5-a]pyridin-3-yl)-4,6,7,8-tetrahydro-5H-[1,3]thiazolo[5,4-b]azepin-5-one]	-4.2	36	71.6	0.1 to 1	60.3	5.2		
Clc1ccc(C2Cc3cn[nH]c3-c3sc(-c4ccncc4)cc32)cc1 (centres unmarked) [Compound 12, 5-(4-chlorophenyl)-7-pyridin-4-yl-4,5-dihydro-1H-thieno[3,2-g]indazole]	-6	9.4	73.2	0.1 to 1	69	31		
O=C1CCCC(O)(c2ccc(Cl)cc2)c2cc(-c3ccncc3)sc21 (centres unmarked) [Compound 15, 4-(4-chlorophenyl)-4-hydroxy-2-pyridin-4-yl-4,5,6,7-tetrahydro-8H-cyclohepta[b]thiophen-8-one]	2	3.1	65	0.1 to 1	26.4	4		
CC1=CC(=O)Nc2sc(-c3ccncc3)cc2C1(C)c1ccc(Cl)cc1 (centres unmarked) [Compound 17, 4-(4-chlorophenyl)-4,5-dimethyl-2-pyridin-4-yl-4,8-dihydro-7H-thieno[2,3-b]azepin-7-one]	28.5	12.4	96.8	< 0.1	47.9	8.6		
O/N=C1/CCC(c2ccc(Cl)cc2)c2cc(-c3ccncc3)sc21 (centres unmarked) [Compound 18, (7Z)-4-(4-chlorophenyl)-2-pyridin-4-yl-5,6-dihydro-1-benzothiophen-7(4H)-one oxime]	-4.1	18.8	104	< 0.1	53.8	21.5		
O=C1CCCC(c2ccc(Cl)cc2)c2cc(-c3ccncc3)sc21 (centres unmarked) [Compound 19, 4-(4-chlorophenyl)-2-pyridin-4-yl-4,5,6,7-tetrahydro-8H-cyclohepta[b]thiophen-8-one]	-6.8	-0.4	86.5	0.1 to 1	43.1	8.1		

Next, values leading:

inhibition at 1.11 µM [1] [%]	inhibition at 1.11 µM [2] [%]	inhibition at 1.11 µM [3] [%]	IC50 [3] [µM]	inhibition at 1.11 µM [4] [%]	inhibition at 1.11 µM [5] [%]	VPS34 % ihn ([1]; at 1.11 μM) [%]	PI3Kgamma % inh ([5]; at 1.11 μM) [%]	SMILES
0.9	23.6	68.2	0.1 to 1	60.4	6.6			Cc1nn2ccccc2c1-c1nc2c(s1)C(=O)CCC2c1ccc(Cl)cc1 (centres unmarked) [Compound 20, 4-(4-chlorophenyl)-2-(2-methylpyrazolo[1,5-a]pyridin-3-yl)-5,6-dihydro-1,3-benzothiazol-7(4H)-one]
-2	3.1	92.8	0.1 to 1	23	10.9			O=C1CC(c2ccc(Cl)cc2)c2cc(-c3ccncc3)sc21 (centres unmarked) [Compound 23, 4-(4-chlorophenyl)-2-(pyridin-4-yl)-4H-cyclopenta[b]thiophen-6(5H)-one]
-6.9	13.8	98.1		54.2	16.9			O/N=C1\CCC(c2ccc(Cl)cc2)c2cc(-c3ccncc3)sc21 (centres unmarked) [Compound 24]
8.5	4.9	98.3	0.1 to 1	46	12.3			O=S1(=O)NC=C(c2ccc(Cl)cc2)c2cc(-c3ccncc3)sc21 [Compound 27, 4-(4-chlorophenyl)-6-pyridin-4-yl-2H-thieno[3,2-e][1,2]thiazine 1,1-dioxide]
	15.7	105	< 0.1	75		8.600	23.550	O=C1CC(c2ccc(Cl)cc2)c2cc(N3CCOCC3)sc21 (centres unmarked) [Compound 28, 4-(4-chlorophenyl)-2-morpholino-4H-cyclopenta[b]thiophen-6(5H)-one]
